Assay results from article PMC11928584, “H105A peptide eye drops promote photoreceptor survival in murine and human models of retinal degeneration” (Communications Medicine, 2025).
Where a SMILES comes first, the peptide text is derived from it.

Experiments:
[1] = test system: photoreceptors of RhoP23H/+ mice; assay: ONL thickness (DAPI sections, spider plot), RhoP23H/+ mice; type: in vivo, mouse; conditions: daily eye drops 1 mg/ml P14-P19, P19, ventral retina
Protocol: After embedding in paraffin, 14 μm sections were collected. […] Cone photoreceptors were labeled with anti-Opsin Blue (Merck, cat. AB5407) and anti-Opsin Red/Green (Merck, cat. AB5405). […] For nuclear staining, 0.1 μg/ml DAPI was used. Slides were mounted with Mowiol 4–88 (Merck) and images acquired with a Zeiss Axio Imager A2 fluorescence microscope. To count TUNEL positive cells the RETINA Analysis Tool kit for ImageJ was used[37].
To generate spider plots, the ONL thickness was measured from images passing through the optic nerve (ON) acquired with light microscopy of the retina sections stained with H&E or images of retina sections stained with DAPI with a dorsal-ventral orientation. The ONL thickness in the entire retina sections was measured at 5 different positions from both sides of the ON using ImageJ[28]. Alternatively, for DAPI stained images, a customed macro implemented in ImageJ was used to select only the ONL.
Fig. 6 Effects of eye drops containing H105A peptide in the photoreceptors of Rho^P23H/+ mice. a Scheme of experimental design. Daily peptide eye drops (5 µl of 1 mg/ml peptide) were applied to mice starting at P14 until P19 when immunofluorescence of retinal cross sections was performed. […] Histograms show quantification of immunofluorescence intensity for BAX and BCL2 markers. Five retinas per group were analyzed, with two sections per retina. […]

[2] = test system: rod photoreceptor outer segments of RhoP23H/+ mice; assay: OS thickness labelled by rhodopsin, RhoP23H/+ mice; type: in vivo, mouse; conditions: Fig 6e
Protocol: Eyes from Rho^P23H/+ mice eyes were enucleated and fixed in Davidson’s fix (8% formaldehyde (Merck, cat. F8775), 32% ethanol (Carlo Erba, cat. 414608), 10% acetic acid (Merck, cat. 695092)) over-night. After embedding in paraffin, 14 μm sections were collected. For TUNEL, sections were treated with […] Citrate Buffer pH 6 (10 mM Tri-sodium citrate (Carlo Erba, cat. 368007)), 0.2 mM citric acid (Merck, cat: 251275) in microwave for 5 min, then labeling was performed for one h at 37 °C using the In Situ Cell Death Detection Kit (Merck, cat. 12156792910). Rod photoreceptors were labeled with anti-RHO 1D4 antibody followed by Alexa Fluor 568 anti-mouse secondary antibody. Cone photoreceptors were labeled with anti-Opsin Blue (Merck, cat. AB5407) and anti-Opsin Red/Green (Merck, cat. AB5405). GFP localization in control transduced retinas was identified with specific anti-GFP antibody and Alexa Fluor 488 anti-mouse secondary antibody. Microglial cell labeling was performed using anti-Iba1 antibody (Wako, cat. 019-19741). For nuclear staining, 0.1 μg/ml DAPI was used. Slides were mounted with Mowiol 4–88 (Merck) and images acquired with a Zeiss Axio Imager A2 fluorescence microscope. To count TUNEL positive cells the RETINA Analysis Tool kit for ImageJ was used[37].
Fig. 6 Effects of eye drops containing H105A peptide in the photoreceptors of Rho^P23H/+ mice. a Scheme of experimental design. Daily peptide eye drops (5 µl of 1 mg/ml peptide) were applied to mice starting at P14 until P19 when immunofluorescence of retinal cross sections was performed. The contralateral control eyes were treated with vehicle HBSS. RE and LE refer to the right and left eyes, respectively. b Immunostaining was performed with antibodies against BAX or BCL2 (green), and DAPI (blue). Histograms show quantification of immunofluorescence intensity for BAX and BCL2 markers. […] Each individual data point represents the average of five (n = 5) retinas ± SD, with statistical significance determined between H105A and vehicle by paired t-test (****p < 0.0001). […] Statistical significance between H105A and untreated is indicated by ∗p ≤ 0.05, and ∗∗p ≤ 0.01. […] Presented as average ± SD, with statistics performed using One-way ANOVA Šídák’s multiple comparisons test. ∗p ≤ 0.05

[3] = Localization of H105A in retina by anti-H105A immunofluorescence; type: in vivo; conditions: RhoP23H/+ mice, daily eye drops P14-P19, anti-H105A immunofluorescence
Protocol: To detect the transduced H105A peptide, we used a custom-made monoclonal recombinant Fab antibody raised against H105A (Bio-Rad AbD Serotec GmbH, Puchheim, Germany). The custom-made antibodies were produced by HuCAL® technology with a FLAG-tag for detection. […] Cells were maintained in DMEM 4.5 g/l (Thermo Fisher Scientific, cat. 11960), supplemented with 10% fetal bovine serum (FBS), 100 U/ml penicillin and 100 µg/ml streptomycin (Thermo Fisher Scientific, cat. 15140148) in 5% CO2 and at 37 °C. […] The specificity of the custom antibody to the H105A peptide was assessed by pre-incubation with 400 µM H105A peptide at 25 °C for 1 h before using it for immunodetection. […]
Daily eye-drop-delivered H105A between P14 and P19 penetrated the retina, reached the photoreceptors, and w a s detected throughout the retina, mostly in the IS/OS ( c). […]
(g-i) Negative controls for immunostaining. No staining was detected in untreated Rho P23H/+ retinas at P 19 (g), in sections where the antibody was pre-incubated with 400 µM H105A peptide for one hour (Panel h), or in sections without the primary antibody (i). […]

With `CC[C@H](C)[C@H](NC(=O)[C@H](CC(C)C)NC(=O)[C@H](CC(=O)O)NC(=O)[C@H](Cc1ccc(O)cc1)NC(=O)[C@H](Cc1ccc(O)cc1)NC(=O)[C@H](CC(C)C)NC(=O)[C@H](C)NC(=O)[C@H](CCCNC(=N)N)NC(=O)[C@H](C)NC(=O)[C@@H](NC(=O)[C@@H](NC(=O)[C@H](CO)NC(=O)[C@H](CCC(=O)O)NC(=O)[C@@H](NC(=O)[C@H](CCCNC(=N)N)NC(=O)[C@@H](N)CCC(N)=O)[C@@H](C)O)[C@@H](C)CC)[C@@H](C)CC)C(=O)N[C@@H](CO)C(=O)O` [H105A] (H-QRTESIIARALYYDLIS-OH) the “ONL thickness” value [1] was “preservation of ONL thickness”, the Outer segments (OS) thickness ([2]; replicate 1 of 9) was 14.6 µm and the Outer segments (OS) thickness ([2]; replicate 2 of 9) was 11.1 µm. For the same compound, the Outer segments (OS) thickness ([2]; replicate 3 of 9) was 16.1 µm, the Outer segments (OS) thickness ([2]; replicate 4 of 9) was 15.5 µm and the Outer segments (OS) thickness ([2]; replicate 5 of 9) was 14.5 µm. It also gave an Outer segments (OS) thickness ([2]; replicate 6 of 9) of 14.6 µm, an Outer segments (OS) thickness ([2]; replicate 7 of 9) of 12.4 µm and an Outer segments (OS) thickness ([2]; replicate 8 of 9) of 20.7 µm. The Outer segments (OS) thickness ([2]; replicate 9 of 9) was 16.5 µm and the “localization of H105A in retina” value [3] was “reaching the photoreceptors”.
